According to patent publication EP4069710B1, “PD(I) COMPLEXES, PROCESS FOR THEIR PREPARATION AND USE THEREOF AS ANTITUMOUR AGENTS” (Universita' Ca' Foscari Venezia, priority 2019, dated 2021):

Columns and labels:
Type in all cases: cell-based
[1] = system: A2780cis; assay: Antiproliferative activity, cell viability by CellTiter-Glo after 96 hours; conditions: A2780cis (ovarian cancer), mean ± standard deviation of triplicate measurements
Method: (§1) Tecan analyser, mod. Infinite® M1000.
(§2) Tests were performed for the purpose of determining the inhibitory concentration (IC50) of a compound of the invention towards tumour cell lines and on a control cell line; for comparative purposes, the same tests were performed with the cisplatin compound.
(§3) The tested cell lines were: A2780, A2780cis, OVCAR5, OVCAR3 e KURAMOCHI (ovarian cancer), A549 (lung cancer), HeLa (cervical cancer), DLD1 (colon cancer) and MRC-5 (control; lung fibroblasts). The mother solutions were obtained in dimethyl sulfoxide for the Pd(I) compound and in H2O for cisplatin.
(§4) The cells were kept, according to the protocols indicated by the suppliers, at 37 °C in an atmosphere containing 5% carbon dioxide. About 500 cells were plated on 96 different well-plates and kept under such conditions for 96 hours.
(§5) The viability of the cells was determined, after treatment of the cells with a 1:1 CellTiter-Glo® solution (registered trademark of Promega Corp., Madison, Wisconsin, USA) and DPBS, with the Tecan Infinite® M1000 instrument. The IC50 values were calculated by the response curves to the dose. The means and standard deviations were obtained from triplicate measurements.

[2] = system: DLD1; assay: as above; conditions: DLD1 (colon cancer), mean ± standard deviation of triplicate measurements
Method: as §1, §2, §3, §4, §5

[3] = system: Kuramochi; assay: as above; conditions: Kuramochi (ovarian cancer), mean ± standard deviation of triplicate measurements
Method: as §1, §2, §3, §4, §5

[4] = system: OVCAR3; assay: as above; conditions: OVCAR3 (ovarian cancer), mean ± standard deviation of triplicate measurements
Method: as §1, §2, §3, §4, §5

[5] = system: OVCAR5; assay: as above; conditions: OVCAR5 (ovarian cancer), mean ± standard deviation of triplicate measurements
Method: as §1, §2, §3, §4, §5

[6] = system: MRC-5; assay: Antiproliferative activity on control cell line, cell viability by CellTiter-Glo after 96 hours; conditions: MRC-5 (control; lung fibroblasts), mean ± standard deviation of triplicate measurements
Method: as §1, §2, §3, §4, §5

Question: What does the source list for `N.N.[Cl][Pt][Cl]` [Cisplatin, cis-diamine-dichloroplatinum(II)]?
Answer: IC50 [1]: 43 ± 3 µM; IC50 [2]: 4.2 ± 0.5 µM; IC50 [3]: 1700 ± 300 nM; IC50 [4]: 2200 ± 100 nM; IC50 [5]: 5.2 ± 0.8 µM; IC50 [6]: 14 ± 1 µM
